Here are results for six compounds from patent US9868772B2 (INDIANA UNIVERSITY RESEARCH AND TECHNOLOGY CORPORATION, priority 2012, dated 2018).

Numbered stars: 1 amine (or outer) side, 2 acyl side, 3 side chain; on linkers, the order of the positions; unused ones are H or OH. Square brackets hold non-standard residues; d marks the D form. Side chains are listed from the residue outwards. Peptide text beside a SMILES is read from it. * marks the point of attachment. γGlu = O=C(O)[C@H](CCC(=O)[*:2])N[*:1]; Palmitoyl = CCCCCCCCCCCCCCCC(=O)*; βAla = NCCC(=O)O; Sar = CNCC(=O)O

Holding throughout (experiment): cAMP induction, firefly luciferase reporter assay in HEK293 cells co-transfected with receptor
Common to all, as to type: cell-based

For one experiment, the target named is T1, GLP-1 receptor (Homo sapiens, UniProt P43220).
T1 construct: expressed in transfected cells; host or cells: HEK293
The method, then: (§1) The ability of glucagon analogs to induce cAMP was measured in a firefly luciferase-based reporter assay. […] At the end of the incubation 100 microliters of LucLite luminescence substrate reagent (Perkin-Elmer, Wellesley, Mass.) were added to each well. […] Effective 50% concentrations were calculated by using Origin software (OriginLab, Northampton, Mass.

In a further experiment the target is T2, glucagon receptor (Homo sapiens, UniProt P47871).
T2 construct: expressed in transfected cells; host or cells: HEK293
The procedure:
as §1

Another experiment addresses T3, GIP receptor (Homo sapiens, UniProt P48546).
T3 construct: expressed in transfected cells; host or cells: HEK293
T3 sequence (P48546 22-466): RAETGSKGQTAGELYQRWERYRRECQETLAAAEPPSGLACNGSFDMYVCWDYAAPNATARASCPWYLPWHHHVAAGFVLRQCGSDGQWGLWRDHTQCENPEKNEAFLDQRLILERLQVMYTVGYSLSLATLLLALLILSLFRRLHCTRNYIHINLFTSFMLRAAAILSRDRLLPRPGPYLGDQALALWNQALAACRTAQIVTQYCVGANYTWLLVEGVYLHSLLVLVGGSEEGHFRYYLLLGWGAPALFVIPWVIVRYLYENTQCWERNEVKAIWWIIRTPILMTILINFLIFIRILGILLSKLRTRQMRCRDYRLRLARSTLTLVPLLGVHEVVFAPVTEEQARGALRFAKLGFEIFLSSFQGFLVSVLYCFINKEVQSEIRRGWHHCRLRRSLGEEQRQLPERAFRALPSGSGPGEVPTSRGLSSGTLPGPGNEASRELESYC
The procedure: as §1

[1] abbreviates: Table 2, analogs of SEQ ID NO: 10.
Setting [2] is: Table 1, analogs of SEQ ID NO: 37.

T2 sequence (P47871 26-477): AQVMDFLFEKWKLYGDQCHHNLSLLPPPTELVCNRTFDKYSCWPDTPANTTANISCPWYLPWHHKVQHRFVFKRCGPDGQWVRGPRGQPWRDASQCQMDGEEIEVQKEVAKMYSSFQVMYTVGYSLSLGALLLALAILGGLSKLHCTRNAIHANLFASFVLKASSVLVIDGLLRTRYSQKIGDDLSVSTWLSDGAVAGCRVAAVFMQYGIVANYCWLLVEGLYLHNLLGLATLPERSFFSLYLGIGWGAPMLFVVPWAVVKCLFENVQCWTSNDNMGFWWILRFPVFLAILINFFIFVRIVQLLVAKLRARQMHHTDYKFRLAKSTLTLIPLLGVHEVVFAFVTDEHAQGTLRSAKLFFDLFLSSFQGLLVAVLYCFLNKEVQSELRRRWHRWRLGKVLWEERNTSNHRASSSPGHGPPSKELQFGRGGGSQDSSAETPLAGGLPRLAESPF
T1 sequence (P43220 24-463): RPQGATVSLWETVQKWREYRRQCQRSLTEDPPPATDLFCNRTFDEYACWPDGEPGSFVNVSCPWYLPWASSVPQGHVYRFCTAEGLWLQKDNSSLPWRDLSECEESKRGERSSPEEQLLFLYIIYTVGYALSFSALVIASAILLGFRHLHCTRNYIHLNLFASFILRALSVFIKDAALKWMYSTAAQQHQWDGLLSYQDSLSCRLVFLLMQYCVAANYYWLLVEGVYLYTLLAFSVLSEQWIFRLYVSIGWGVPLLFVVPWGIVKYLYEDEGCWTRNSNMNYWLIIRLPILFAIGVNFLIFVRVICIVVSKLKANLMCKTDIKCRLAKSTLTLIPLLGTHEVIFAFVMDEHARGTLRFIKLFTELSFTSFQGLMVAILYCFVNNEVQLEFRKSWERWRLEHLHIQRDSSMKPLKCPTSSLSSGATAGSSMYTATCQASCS

Usually EC50 stands for the concentration giving half of the maximal effect. In the case of `CCCCCCCCCCCCCCCC(=O)N[C@@H](CCC(=O)NCCCC[C@H](NC(=O)[C@H](CC(=O)O)NC(=O)[C@H](CO)NC(=O)[C@@H](NC(=O)[C@H](Cc1ccccc1)NC(=O)[C@@H](NC(=O)CNC(=O)[C@H](CC(C)C)NC(=O)[C@H](C)NC(=O)[C@@H](Cc1ccc(O)cc1)NC(C)=O)[C@@H](C)O)[C@@H](C)O)C(=O)N[C@@H](CO)C(=O)N[C@@H](CCCCN)C(=O)N[C@@H](Cc1ccc(O)cc1)C(=O)N[C@@H](CC(C)C)C(=O)N[C@@H](CC(=O)O)C(=O)N[C@@H](CCC(=O)O)C(=O)N[C@@H](CCCNC(=N)N)C(=O)N[C@@H](C)C(=O)N[C@@H](C)C(=O)N[C@@H](CCC(N)=O)C(=O)N[C@@H](CC(=O)O)C(=O)N[C@@H](Cc1ccccc1)C(=O)N[C@H](C(=O)N[C@@H](CCC(N)=O)C(=O)N[C@@H](Cc1c[nH]c2ccccc12)C(=O)N[C@@H](CC(C)C)C(=O)N[C@@H](CC(C)C)C(=O)N[C@@H](CCC(=O)O)C(=O)NCC(=O)NCC(=O)N1CCC[C@H]1C(=O)N[C@@H](CO)C(=O)N[C@@H](CO)C(=O)NCC(=O)N[C@@H](C)C(=O)N1CCC[C@H]1C(=O)N1CCC[C@H]1C(=O)N1CCC[C@H]1C(=O)N[C@@H](CO)C(N)=O)C(C)C)C(=O)O` [compound 142] (Ac-[dY]ALGTFTSDK([γGlu-Palmitoyl])SKYLDERAAQDFVQWLLEGGPSSGAPPPS-NH2), the figures for the EC50 at GLP-1 receptor (setting [1]), at glucagon receptor (setting [1]) and on GIP receptor (setting [1]) were 0.005 nM, 0.103 nM and 0.002 nM, respectively.
Regarding `CCCCCCCCCCCCCCCC(=O)N[C@@H](CCC(=O)NCCCC[C@H](NC(=O)[C@H](CC(=O)O)NC(=O)[C@H](CO)NC(=O)[C@@H](NC(=O)[C@H](Cc1ccccc1)NC(=O)[C@@H](NC(=O)CNC(=O)[C@H](CCC(N)=O)NC(=O)CN(C)C(=O)[C@@H](N)Cc1c[nH]cn1)[C@@H](C)O)[C@@H](C)O)C(=O)N[C@@H](CO)C(=O)N[C@@H](CCCCN)C(=O)N[C@@H](Cc1ccc(O)cc1)C(=O)N[C@@H](CC(C)C)C(=O)N[C@@H](CC(=O)O)C(=O)N[C@@H](CCC(=O)O)C(=O)N[C@@H](CCCNC(=N)N)C(=O)N[C@@H](C)C(=O)N[C@@H](C)C(=O)N[C@@H](CCC(N)=O)C(=O)N[C@@H](CC(=O)O)C(=O)N[C@@H](Cc1ccccc1)C(=O)N[C@H](C(=O)N[C@@H](CCC(N)=O)C(=O)N[C@@H](Cc1c[nH]c2ccccc12)C(=O)N[C@@H](CC(C)C)C(=O)N[C@@H](CC(C)C)C(=O)N[C@@H](CCC(=O)O)C(=O)NCC(=O)NCC(=O)N1CCC[C@H]1C(=O)N[C@@H](CO)C(=O)N[C@@H](CO)C(=O)NCC(=O)N[C@@H](C)C(=O)N1CCC[C@H]1C(=O)N1CCC[C@H]1C(=O)N1CCC[C@H]1C(=O)N[C@@H](CO)C(N)=O)C(C)C)C(=O)O` [compound 28] (H-H[Sar]QGTFTSDK([γGlu-Palmitoyl])SKYLDERAAQDFVQWLLEGGPSSGAPPPS-NH2), the EC50 on GLP-1 receptor (setting [2]) was 0.002 nM; at glucagon receptor (setting [2]), 0.022 nM; at GIP receptor (setting [2]), 0.081 nM.
With `CCCCCCCCCCCCCCCC(=O)N[C@@H](CCC(=O)NCCCC[C@H](NC(=O)[C@H](CC(=O)O)NC(=O)[C@H](CO)NC(=O)[C@@H](NC(=O)[C@H](Cc1ccccc1)NC(=O)[C@@H](NC(=O)CNC(=O)[C@H](CCC(N)=O)NC(=O)CCNC(=O)[C@@H](N)Cc1c[nH]cn1)[C@@H](C)O)[C@@H](C)O)C(=O)N[C@@H](CO)C(=O)N[C@@H](CCCCN)C(=O)N[C@@H](Cc1ccc(O)cc1)C(=O)N[C@@H](CC(C)C)C(=O)N[C@@H](CC(=O)O)C(=O)N[C@@H](CCC(=O)O)C(=O)N[C@@H](CCCNC(=N)N)C(=O)N[C@@H](C)C(=O)N[C@@H](C)C(=O)N[C@@H](CCC(N)=O)C(=O)N[C@@H](CC(=O)O)C(=O)N[C@@H](Cc1ccccc1)C(=O)N[C@H](C(=O)N[C@@H](CCC(N)=O)C(=O)N[C@@H](Cc1c[nH]c2ccccc12)C(=O)N[C@@H](CC(C)C)C(=O)N[C@@H](CC(C)C)C(=O)N[C@@H](CCC(=O)O)C(=O)NCC(=O)NCC(=O)N1CCC[C@H]1C(=O)N[C@@H](CO)C(=O)N[C@@H](CO)C(=O)NCC(=O)N[C@@H](C)C(=O)N1CCC[C@H]1C(=O)N1CCC[C@H]1C(=O)N1CCC[C@H]1C(=O)N[C@@H](CO)C(N)=O)C(C)C)C(=O)O` [compound 26] (H-H[βAla]QGTFTSDK([γGlu-Palmitoyl])SKYLDERAAQDFVQWLLEGGPSSGAPPPS-NH2), the EC50 on GLP-1 receptor (setting [2]) was determined as 0.002 nM; on glucagon receptor (setting [2]), 0.095 nM; at GIP receptor (setting [2]), 0.071 nM.
For `CCCCCCCCCCCCCCCC(=O)N[C@@H](CCC(=O)NCCCC[C@H](NC(=O)[C@H](CC(=O)O)NC(=O)[C@H](CO)NC(=O)[C@@H](NC(=O)[C@H](Cc1ccccc1)NC(=O)[C@@H](NC(=O)CNC(=O)[C@H](CCC(N)=O)NC(=O)CNC(=O)[C@@H](Cc1ccc(O)cc1)NC(C)=O)[C@@H](C)O)[C@@H](C)O)C(=O)N[C@@H](CO)C(=O)N[C@@H](CCCCN)C(=O)N[C@@H](Cc1ccc(O)cc1)C(=O)N[C@@H](CC(C)C)C(=O)N[C@@H](CC(=O)O)C(=O)N[C@@H](CCC(=O)O)C(=O)N[C@@H](CCCNC(=N)N)C(=O)N[C@@H](C)C(=O)N[C@@H](C)C(=O)N[C@@H](CCC(N)=O)C(=O)N[C@@H](CC(=O)O)C(=O)N[C@@H](Cc1ccccc1)C(=O)N[C@H](C(=O)N[C@@H](CCC(N)=O)C(=O)N[C@@H](Cc1c[nH]c2ccccc12)C(=O)N[C@@H](CC(C)C)C(=O)N[C@@H](CC(C)C)C(=O)N[C@@H](CCC(=O)O)C(=O)NCC(=O)NCC(=O)N1CCC[C@H]1C(=O)N[C@@H](CO)C(=O)N[C@@H](CO)C(=O)NCC(=O)N[C@@H](C)C(=O)N1CCC[C@H]1C(=O)N1CCC[C@H]1C(=O)N1CCC[C@H]1C(=O)N[C@@H](CO)C(N)=O)C(C)C)C(=O)O` [compound 14] (Ac-[dY]GQGTFTSDK([γGlu-Palmitoyl])SKYLDERAAQDFVQWLLEGGPSSGAPPPS-NH2) the same measures were 0.022 nM, 0.005 nM and 0.005 nM.
In the case of `CCCCCCCCCCCCCCCC(=O)N[C@@H](CCC(=O)NCCCC[C@H](NC(=O)[C@H](CC(=O)O)NC(=O)[C@H](CO)NC(=O)[C@@H](NC(=O)[C@H](Cc1ccccc1)NC(=O)[C@@H](NC(=O)CNC(=O)[C@@H](CCC(N)=O)NC(=O)[C@H](C)NC(=O)[C@H](Cc1ccc(O)cc1)NC(C)=O)[C@@H](C)O)[C@@H](C)O)C(=O)N[C@@H](CO)C(=O)N[C@@H](CCCCN)C(=O)N[C@@H](Cc1ccc(O)cc1)C(=O)N[C@@H](CC(C)C)C(=O)N[C@@H](CC(=O)O)C(=O)N[C@@H](CCC(=O)O)C(=O)N[C@@H](CCCNC(=N)N)C(=O)N[C@@H](C)C(=O)N[C@@H](C)C(=O)N[C@@H](CCC(N)=O)C(=O)N[C@@H](CC(=O)O)C(=O)N[C@@H](Cc1ccccc1)C(=O)N[C@H](C(=O)N[C@@H](CCC(N)=O)C(=O)N[C@@H](Cc1c[nH]c2ccccc12)C(=O)N[C@@H](CC(C)C)C(=O)N[C@@H](CC(C)C)C(=O)N[C@@H](CCC(=O)O)C(=O)NCC(=O)NCC(=O)N1CCC[C@H]1C(=O)N[C@@H](CO)C(=O)N[C@@H](CO)C(=O)NCC(=O)N[C@@H](C)C(=O)N1CCC[C@H]1C(=O)N1CCC[C@H]1C(=O)N1CCC[C@H]1C(=O)N[C@@H](CO)C(N)=O)C(C)C)C(=O)O` [compound 158] (Ac-YA[dQ]GTFTSDK([γGlu-Palmitoyl])SKYLDERAAQDFVQWLLEGGPSSGAPPPS-NH2), the concentration for a half-maximal effect (EC50) was determined as 0.349 nM on GLP-1 receptor (setting [1]), 0.416 nM at glucagon receptor (setting [1]) and 0.069 nM at GIP receptor (setting [1]).
Consider `CCCCCCCCCCCCCCCC(=O)N[C@@H](CCC(=O)NCCCC[C@H](NC(=O)[C@H](CC(=O)O)NC(=O)[C@H](CO)NC(=O)[C@@H](NC(=O)[C@H](Cc1ccccc1)NC(=O)[C@@H](NC(=O)CNC(=O)[C@H](CCC(N)=O)NC(=O)C(C)(C)NC(=O)[C@@H](N)Cc1c[nH]cn1)[C@@H](C)O)[C@@H](C)O)C(=O)N[C@@H](CO)C(=O)N[C@@H](CCCCN)C(=O)N[C@@H](Cc1ccc(O)cc1)C(=O)N[C@@H](CC(C)C)C(=O)N[C@@H](CC(=O)O)C(=O)N[C@@H](CCC(=O)O)C(=O)N[C@@H](CCCNC(=N)N)C(=O)N[C@@H](C)C(=O)N[C@@H](C)C(=O)N[C@@H](CCC(N)=O)C(=O)N[C@@H](CC(=O)O)C(=O)N[C@@H](Cc1ccccc1)C(=O)N[C@H](C(=O)N[C@@H](CCC(N)=O)C(=O)N[C@@H](Cc1c[nH]c2ccccc12)C(=O)N[C@@H](CC(C)C)C(=O)N[C@@H](CC(C)C)C(=O)N[C@@H](CC(=O)O)C(=O)NCC(=O)NCC(=O)N1CCC[C@H]1C(=O)N[C@@H](CO)C(=O)N[C@@H](CO)C(=O)NCC(=O)N[C@@H](C)C(=O)N1CCC[C@H]1C(=O)N1CCC[C@H]1C(=O)N1CCC[C@H]1C(=O)N[C@@H](CO)C(N)=O)C(C)C)C(=O)O` [compound 10], for which the concentration giving a half-maximal response (EC50) on GLP-1 receptor (setting [2]) and on glucagon receptor (setting [2]) was 0.005 nM throughout.
